Assay results: US20230321082A1, “USE OF TRIAZOLE ANALOGUES FOR INHIBITION OF A TRIPARTITE VOR PROTEIN COMPLEX IN MULTICELLULAR ORGANISMS” (TECHNISCHE UNIVERSITÄT DRESDEN, priority 2020, published 2023)

Columns and labels:
[1] = molecular target: T1, tripartite VAP-A, ORP3 and Rab7 (VOR) protein complex (Homo sapiens, UniProt Q9H4L5); assay: VOR complex integrity in whole SW480 cells (anti-ORP3 immunoisolation, Rab7 co-immunoisolation); type: cell-based; details: 10 μM, 5 hours
T1 construct: solubilized and subjected to immunoisolation (IS) using anti-ORP3 Ab followed by Protein G-coupled magnetic beads; endogenous in cells; host or cells: SW480 cells
T1 sequence (Q9H4L5 1-887): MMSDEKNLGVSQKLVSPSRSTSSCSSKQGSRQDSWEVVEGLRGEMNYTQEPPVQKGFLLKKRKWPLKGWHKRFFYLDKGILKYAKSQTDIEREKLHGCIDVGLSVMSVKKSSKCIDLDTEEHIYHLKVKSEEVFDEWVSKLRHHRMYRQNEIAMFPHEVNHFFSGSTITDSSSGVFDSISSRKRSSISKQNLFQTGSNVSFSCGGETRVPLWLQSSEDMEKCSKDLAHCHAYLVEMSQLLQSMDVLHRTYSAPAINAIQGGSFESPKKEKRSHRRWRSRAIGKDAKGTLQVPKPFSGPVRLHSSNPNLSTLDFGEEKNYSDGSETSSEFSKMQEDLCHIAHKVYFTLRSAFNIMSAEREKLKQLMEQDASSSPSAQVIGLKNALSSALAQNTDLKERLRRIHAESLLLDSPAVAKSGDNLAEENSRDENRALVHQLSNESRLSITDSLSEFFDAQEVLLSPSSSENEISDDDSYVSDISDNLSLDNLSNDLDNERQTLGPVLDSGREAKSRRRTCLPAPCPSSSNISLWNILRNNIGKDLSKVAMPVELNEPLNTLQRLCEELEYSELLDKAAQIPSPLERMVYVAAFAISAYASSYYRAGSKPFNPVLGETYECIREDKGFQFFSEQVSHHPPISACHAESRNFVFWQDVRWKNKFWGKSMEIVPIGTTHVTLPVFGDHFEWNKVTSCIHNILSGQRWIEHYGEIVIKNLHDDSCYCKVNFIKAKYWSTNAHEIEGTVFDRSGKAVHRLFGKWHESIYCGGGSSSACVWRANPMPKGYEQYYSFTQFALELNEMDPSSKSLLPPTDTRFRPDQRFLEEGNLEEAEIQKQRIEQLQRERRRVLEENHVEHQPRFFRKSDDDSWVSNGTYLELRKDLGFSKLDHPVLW
T1 sequence (Q9P0L0 1-249 partner): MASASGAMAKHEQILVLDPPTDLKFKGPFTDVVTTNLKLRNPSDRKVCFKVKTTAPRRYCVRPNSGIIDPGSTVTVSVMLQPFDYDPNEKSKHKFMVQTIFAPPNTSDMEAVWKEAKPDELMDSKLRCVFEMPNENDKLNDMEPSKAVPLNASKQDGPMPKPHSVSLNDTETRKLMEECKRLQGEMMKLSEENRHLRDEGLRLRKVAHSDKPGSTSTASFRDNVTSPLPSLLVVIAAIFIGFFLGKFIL
Procedure: SW480 cells were incubated with DMSO solvent alone (control), 10 μM ICZ, triazole compound 5, compound 3 or ketoconazole for 5 hours, solubilized and subjected to immunoisolation (IS) using anti-ORP3 Ab followed by Protein G-coupled magnetic beads. The input (1/50, for Rab7 only) and entire bound fractions were probed by immunoblotting for ORP3, VAP-A and Rab7. The Rab7/VAP-A ratios were quantified (n=3). The mean±S.D. are shown. P values are indicated.

[2] = molecular target: T1, tripartite VAP-A, ORP3 and Rab7 (VOR) protein complex; assay: VOR complex integrity in detergent SW480 cell lysates (anti-ORP3 immunoisolation, Rab7 co-immunoisolation); type: biochemical; details: 10 μM, 30 minutes on ice
Procedure: Detergent SW480 cell lysates were incubated with DMSO solvent alone (control), 10 μM ICZ, triazole compound 5, compound 3 or ketoconazole for 30 minutes on ice, and then subjected to immunoisolation (IS) using anti-ORP3 Ab followed by Protein G-coupled magnetic beads. The input (1/50, for Rab7 only) and entire bound fractions were probed by immunoblotting for ORP3, VAP-A and Rab7. The Rab7/VAP-A ratios were quantified (n=3). The mean±S.D. are shown. P values are indicated. […] Referring to FIGS. 12A, 12B, 12C and 12D illustrate the effects of various triazole compounds on the VOR complex integrity. Detergent SW480 cell lysates were incubated with DMSO solvent alone (control), 2.5 μM (FIG. 12A), 5 μM (FIG. 12B), 7.5 μM (FIG. 12C) or 10 μM (FIG. 12D) ICZ and triazole compounds for 30 minutes on ice and then subjected to immunoisolation (IS) using anti-ORP3 Ab followed by Protein G-coupled magnetic beads. The entire bound fractions were probed by immunoblotting for ORP3, VAP-A and Rab7 (data not shown). The percent inhibition of Rab7 expression were quantified and compared to the control sample (dashed line).

Cancer SW480 cells = assay: MTS cell viability, SW480 cells; type: cell-based; details: 10 μM, 24, 48 and 72 hours
Procedure: (§1) Referring to FIG. 11, illustrates that triazole analogues were not toxic for cells. Cancer SW480 cells (left panel) and primary mesenchymal stromal cells (right panel) were incubated with DMSO solvent alone (control), 10 μM ICZ, compound 5, compound 3 or ketoconazole (KCZ) for 24, 48 and 72 hours as indicated. At the end of each time point, MTS tetrazolium compound (3-(4,5-dimethylthiazol-2-yl)-5-(3-carboxymethoxyphenyl)-2-(4-sulfophenyl)-2H-tetrazolium) was added for 1 hour to evaluate the amounts of viable cells. The absorbance value was measured at 490 nm. The mean±S.D. are shown (n=6). **, p<0.01.

[3] = tested on: primary mesenchymal stromal cells; assay: MTS cell viability, primary mesenchymal stromal cells; type: cell-based; details: 10 μM, 24, 48 and 72 hours
Procedure: as §1

[4] = tested on: HIV-1 integrase in HeLa cells; assay: Transport of HIV-1 integrase into the nucleoplasmic reticulum (IN-2 immunolabelling); type: cell-based; details: 10 μM, 30 minutes pretreatment, HIV-Gag-iGFP infection 1 hour
Procedure: (A) HeLa cells were pretreated with 10 μM of drugs as indicated for 30 minutes before HIV-Gag-iGFP infection for 1 hour in the presence of drugs. As controls, DMSO was used (DMSO, HIV-infected cells; control, uninfected cells). Cells were fixed and processed for double immunolabelling for VAP-A and HIV IN (IN-2). […] (B) HeLa cells expressing Rab7-RFP were treated as in panel A, and then double immunolabelled for SUN2 and IN-2. Scale bars, 10 (A) and 5 (B) μm.
Referring to FIG. 19A, B illustrates the quantification of IN-2 immunoreactivity in SUN2^+ NEI (A, 50 NEIs were assessed per experiment, n=3, individual values of each experiment is indicated) and the IN-2 nucleoplasm/cytoplasm ratio per cell (B, n=150 cells from three independent experiments) on HeLa cells treated with drugs as indicated (see FIG. 18B). Means±S.D. with individual values for each experiment (A) are shown. N.s., not significant; ***, p<0.001.

SW480 cells [5] = assay: Entry of Rab7+ late endosomes in SUN2+ NEI, confocal microscopy; type: cell-based; details: 10 μM, 5 hours
Procedure: Referring to FIG. 8, illustrates that the triazole compound 5 inhibited the entry of Rab7^+ late endosomes in NEI. SW480 cells were incubated with DMSO (control), 10 μM ICZ, triazole compound 5, triazole compound 3 or ketoconazole (KCZ) for 5 hours prior to double immunolabelling for Rab7 and nuclear membrane protein SUN2 and the staining with cholesterol-binding compound filipin. Cells were analyzed by confocal laser scanning microscopy (left panel). Arrows indicate SUN2^+ NEI and arrowheads point to Rab7 and filipin-labelled cholesterol therein. […] The mean±S.D. are shown. P values are indicated. N.s., not significant. Scale bars, 5 μm.

SW480 cells [6] = assay: EV-induced pro-metastatic morphological transformation; type: cell-based; details: 10 μM, 10 minutes pre-treatment, EVs 1×10^9 particles/ml, 5 hours
Procedure: Referring to FIG. 9, illustrates that the triazole compound 5 inhibited EV-induced pro-metastatic morphological transformation. SW480 cells were pre-treated with DMSO solvent alone (control), 10 μM ICZ, triazole compound 5 or compound 3 for 10 minutes prior to incubation without or with EVs (1×10^9 particles/ml) derived from metastatic SW620 cells for 5 hours. Cell morphology was analyzed by confocal laser scanning microscopy upon CD9 immunolabelling (data not shown). Bar graphs show the percentage of cells harboring a rounded (left panel) or blebbed (right panel) morphology upon exposure to EVs. The mean±S.D. are shown. At least 50 cells were evaluated per condition and independent experiment (n=6).

SW480 cells [7] = assay: Nuclear transfer of EV cargo (CD9-GFP); type: cell-based; details: 10 μM, 10 minutes pre-treatment, 5-hour incubation with EVs
Procedure: SW480 cells were pre-treated for 10 minutes with DMSO (control), 10 μM ICZ, triazole compound 5, triazole compound 3 or ketoconazole (KCZ) prior to 5-hour incubation with melanoma cell-derived CD9-green fluorescent protein (GFP)^+ EVs in the absence or presence of drugs. Recipient cells were then fixed and immunolabelled for the nuclear membrane protein SUN2. The amounts of EV-derived CD9-GFP in the nuclear compartments were analyzed by confocal laser scanning microscopy and quantified using Fiji software. Nuclear CD9-GFP was evaluated from 50 cells per condition and a representative experiment with mean±S.D. are shown. P values are indicated. N.s., not significant.

SW480 cells [8] = assay: Scratch wound healing assay, EV-induced migration; type: cell-based; details: 10 μM, EVs from SW620 cells 7.5×10^8 particles/ml, 5 hours
Procedure: Referring to FIG. 16, illustrates images of the scratch wound healing assay of SW480 cells treated with 10 μM drugs (ICZ, compound 5) without or with EVs (7.5×10^8 particles/ml) derived from SW620 cells for 5 hours (upper panels). The mean±S.E.M. (n=2 independent experiments) is presented (lower panel).

[9] = tested on: HIV-Gag-iGFP infection of HeLa cells; assay: HIV-1 productive infection (HIV-Gag-iGFP expression); type: cell-based; details: 10 μM pretreatment, infection 6 hours, then 24 hours in presence of drugs
Procedure: Referring to FIG. 20A-C, illustrates the impact of drugs on productive infection. HeLa cells pretreated with drugs as above before HIV-Gag-iGFP infection for 6 hours, washed, and incubated for 24 hours in the presence of drugs. Samples were processed either for immunocytochemistry or flow cytometry analyses. DMSO was used as solvent vehicle. […] Dashed line represents DMSO-treated, noninfected cells as a negative control. […] The percentage of GFP^+ cells as assessed by flow cytometry is plotted (C). Means±S.D. with individual values for each experiment are shown. Cy, cytoplasm; Pm, plasma membrane; n.s., not significant; ***, p<0.001.

host cells = assay: NEI-associated late endosomes and nuclear transfer of EV-derived components after importazole treatment; type: cell-based
From the text: Referring to FIGS. 1A, 1B and 1C, illustrate data showing the localization and tripartite structure of a VOR complex. […] Typically, EVs are transported to late endosomes after their endocytosis, wherein the EVs facilitate intercellular communication in diverse cellular processes.

SMILES	co-immunoisolation of Rab7 with ORP3 (Rab7/VAP-A ratio) [1]	co-immunoisolation of Rab7 with ORP3 (Rab7/VAP-A ratio) [2]	toxicity for cells (MTS, viable cells) (Cancer SW480 cells)	toxicity for cells (MTS, viable cells) [3]	transport of HIV-1 integrase into the nucleoplasmic reticulum (IN-2 immunoreactivity in NEI) [4]	Rab7 and cholesterol in SUN2+ NEI (SW480 cells [5])	entry of Rab7+ late endosomes in NEI (SW480 cells [5])	morphological transformation (rounded or blebbed) induced by EVs from metastatic SW620 cells (SW480 cells [6])	nuclear transfer of EV cargo (EV-derived CD9-GFP in nuclear compartments) (SW480 cells [7])	migration of SW480 cells induced by EVs (SW480 cells [8])	Gag-iGFP expression (productive infection) [9]	NEI-associated late endosomes (host cells)	transfer of EV-derived components into the nucleoplasm of host cells (host cells)
O=c1[nH]ncn1-c1ccc(Cl)cc1 [compound 3, 4-(4-Chlorophenyl)-2,4-dihydro-3H-1,2,4-triazol-3-one]	do not	do not	not toxic	not toxic	detected in NEI	–	–	–	–	–	–	–	–
CCC(C)n1ncn(-c2ccc(Cl)cc2)c1=O (centres unmarked) [compound 5, 2-(butan-2-yl)-4-(4-chlorophenyl)-2,4-dihydro-3H-1,2,4-triazol-3-one]	inhibit the co-immunoisolation of Rab7	inhibits the co-immunoisolation of Rab7	not toxic	not toxic	inhibit the transport of HIV-1 integrase into the nucleoplasmic reticulum	absence of Rab7 and cholesterol	inhibited	inhibited the morphological transformation	inhibited the nuclear transfer of EV cargo	inhibit the migration	reduction in Gag-iGFP expression	–	–
CC(Nc1nc(N2CCCC2)nc2ccccc12)c1ccccc1 (centres unmarked) [importazole]	–	–	–	–	–	–	–	–	–	–	–	lack of the NEI-associated late endosomes	inhibition of transfer
CC(=O)N1CCN(c2ccc(OCC3COC(Cn4ccnc4)(c4ccc(Cl)cc4Cl)O3)cc2)CC1 (centres unmarked) [ketoconazole, reference compound]	do not	do not	–	–	–	–	–	–	–	–	–	–	–
